Results on seven compounds are retold here after paper PMC6949950, “Screening Mold Colonies by Using Two Toxicity Assays Revealed Indoor Strains of Aspergillus calidoustus Producing Ophiobolins G and K” (Toxins, 2019).

Test [1] concerns boar spermatozoa. Nature of the test: cells. The test is classed as cell-based. The settings on record: for EC50: Spermatozoa.
The test system of test [2] is boar spermatozoa. In words: cells. The conditions noted are these: for EC50: Spermatozoa, 24 h, read-out: EC50 SMID 1 day. The test is classed as cell-based.
The subject of test [3] is porcine kidney PK-15 cells. In words: cells. The test is classed as cell-based. The settings on record: for EC50: Sus scrofa, read-out: EC50 ICP 2 days.
The next test has as its system M. circinelloides. More on the design: method as in doi:10.1211/146080800128736312, PMID 21054501, PMID 22130129, PMID 23538442. The settings on record: cited from earlier work.
[4] abbreviates: boar sperm, exposure 0.5–1 h, twofold dilutions, three measurements within one dilution step, read-out: EC50 BSMI 0.5–1 h.
[5] abbreviates: boar sperm, exposure 1–2 days, twofold dilutions, read-out: EC50 BSMI 1–2 days.
The mark [6] stands for this setting: boar sperm, exposure 1 day, SD between three measurements < ± 35%.
Setting [7] is: PK-15, 48 h, PK-15 cells, exposure 2 days, SD between three measurements < ± 35%.
Where [8] appears, read: PK-15 cells, exposure 2 days, SD between three measurements < ± 35%.
Where [9] appears, read: boar sperm, exposure 0.5–1 h, twofold dilutions, three measurements within one dilution step.
The mark [10] stands for this setting: boar sperm, exposure 1–2 days, twofold dilutions.

In brackets after ≈: the same amount, converted by molar mass. Where two headings read alike, the source gives them in different places.

Usually EC50 stands for the concentration at which the effect is half-maximal. Take `CC1(C)C=Cc2c(ccc3c2[N+]([O-])=C2C3=C[C@@]34NC(=O)[C@]5(CCCN5C3=O)C[C@H]4C2(C)C)O1` [Avrainvillamide]: the EC50 in the test with boar spermatozoa [1] (setting [4]) is 0.6 µg/mL (≈ 1.35 µM); in the test with boar spermatozoa [1] (setting [5]), 0.3 µg/mL (≈ 0.673 µM); in the test on boar spermatozoa [2] (setting [6]), above 2 µg/mL; in test [3] (setting [7]), 0.3 µg/mL (≈ 0.673 µM).

Consider `C[C@@H]1Cc2c(Cl)cc(C(=O)N[C@@H](Cc3ccccc3)C(=O)O)c(O)c2C(=O)O1` [Ochratoxin A], for which the EC50 in the test with boar spermatozoa [1] (setting [4]) is above 100 µg/mL; in the test with boar spermatozoa [1] (setting [5]), above 50 µg/mL; in the test with boar spermatozoa [2] (setting [6]), above 50 µg/mL; in test [3] (48 h, PK-15 cells, exposure 2 days, SD between three measurements < ± 35%), above 50 µg/mL.

With `CC(C)=C[C@H]1C[C@H](C)[C@]2(CC[C@]3(C)C[C@H]4[C@H](C(=O)C[C@@]4(C)O)/C(C=O)=C\C[C@H]32)O1` [Ophiobolin A], the EC50 in the test on boar spermatozoa [1] (setting [4]) came to 2.5 µg/mL (≈ 6.24 µM); in the test with boar spermatozoa [1] (setting [5]), 0.25 µg/mL (≈ 0.624 µM); with boar spermatozoa [2] (setting [6]), 2 µg/mL (≈ 4.99 µM). Also, the “EC50 ICP 2 days” value in test [3] (setting [8]) came out at 0.2 µg/mL (≈ 0.499 µM). Besides, the “treatment concentration at which apoptosis-like cell death process was observed” value in the test on M. circinelloides was 1.6 µg/mL.

On to `CC1(C)C=Cc2c(ccc3c2[N+]([O-])=C2C(C)(C)[C@@H]4CC56CCCN5C(=O)[C@]4(NC6=O)[C@H]4N5C(=O)[C@@]67CCCN6C(=O)[C@@]56[C@H](c5c(n(O)c8c9c(ccc58)OC(C)(C)C=C9)C(C)(C)[C@@H]6C7)[C@]234)O1` [Stephacidin B], for which the “EC50 BSMI 0.5–1 h” value in the test on boar spermatozoa [1] (setting [9]) is 0.5 µg/mL (≈ 0.561 µM). For the same compound, in the test on boar spermatozoa [1] (setting [10]), the “EC50 BSMI 1–2 days” value came to 0.2 µg/mL (≈ 0.224 µM). Besides, the “EC50 SMID 1 day” value in the test with boar spermatozoa [2] (setting [6]) is above 2 µg/mL. Also, the “EC50 ICP 2 days” value in test [3] (setting [8]) is 0.2 µg/mL (≈ 0.224 µM).

`COc1cc2c(c3oc4cccc(O)c4c(=O)c13)[C@@H]1C=CO[C@@H]1O2` [Sterigmatocystin]: in the test on boar spermatozoa [1], the “EC50 BSMI 0.5–1 h” value is above 100 µg/mL and the “EC50 BSMI 1–2 days” value is above 20 µg/mL. For the same compound, in the test with boar spermatozoa [2], the “EC50 SMID 1 day” value was above 20 µg/mL. Further, in test [3], the “EC50 ICP 2 days” value turned out to be 0.25 µg/mL (≈ 0.771 µM) and the “toxicity to proliferating PK-15 cells in the ICP assay” value is given as “highly toxic”.

In the case of `Oc1cc(Cl)ccc1Oc1ccc(Cl)cc1Cl` [triclosan], the values for the EC50 (in the test on boar spermatozoa [2] (setting [6]); in test [3] (setting [7])) were 2 µg/mL (≈ 6.91 µM) and 9.4 µg/mL (≈ 32.5 µM), respectively.

Alamethicin: the “EC50 BSMI 0.5–1 h” value in the test on boar spermatozoa [1] (setting [9]) amounted to 5 µg/mL. For the same compound, the “EC50 BSMI 1–2 days” value in the test with boar spermatozoa [1] (setting [10]) turned out to be 0.2 µg/mL. The “EC50 SMID 1 day” value in the test on boar spermatozoa [2] (setting [6]) stood at 0.2 µg/mL. In addition, in test [3] (setting [8]), the “EC50 ICP 2 days” value turned out to be 8 µg/mL.
